According to ChEMBL document CHEMBL4804284:
Activity calls are given as the source filed them. No cut-off for these calls is given here.

Assays:
[1] = target: Serine/threonine-protein kinase ICK (Homo sapiens) (UniProt Q9UPZ9); test: Inhibition of DNA-tagged human ICK assessed as percent of control at 50000 nM by qPCR analysis relative to control; parameters: scale not given: the % may be the effect or the level left
[2] = target: Protein-tyrosine kinase 2-beta (Homo sapiens) (UniProt Q14289); test: Inhibition of DNA-tagged human PYK2 assessed as percent of control at 50000 nM by qPCR analysis relative to control; parameters: scale not given: the % may be the effect or the level left
[3] = target: Calcium/calmodulin-dependent protein kinase type 1 (Homo sapiens) (UniProt Q14012); test: Inhibition of DNA-tagged human CAMK1 assessed as percent of control at 50000 nM by qPCR analysis relative to control; parameters: scale not given: the % may be the effect or the level left
[4] = target: Serine/threonine-protein kinase tousled-like 1 (Homo sapiens) (UniProt Q9UKI8); test: Inhibition of DNA-tagged human TLK1 assessed as percent of control at 50000 nM by qPCR analysis relative to control; parameters: scale not given: the % may be the effect or the level left
[5] = target: Casein kinase I isoform gamma-2 (Homo sapiens) (UniProt P78368); test: Inhibition of DNA-tagged human CSNK1G2 assessed as percent of control at 50000 nM by qPCR analysis relative to control; parameters: scale not given: the % may be the effect or the level left
[6] = target: Rhodopsin kinase GRK7 (Homo sapiens) (UniProt Q8WTQ7); test: Inhibition of DNA-tagged human GRK7 assessed as percent of control at 50000 nM by qPCR analysis relative to control; parameters: scale not given: the % may be the effect or the level left
[7] = target: Tyrosine-protein kinase Yes (Homo sapiens) (UniProt P07947); test: Inhibition of DNA-tagged human YES assessed as percent of control at 50000 nM by qPCR analysis relative to control; parameters: scale not given: the % may be the effect or the level left
[8] = target: Activin receptor type-2B (Homo sapiens) (UniProt Q13705); test: Inhibition of DNA-tagged human ACVR2B assessed as percent of control at 50000 nM by qPCR analysis relative to control; parameters: scale not given: the % may be the effect or the level left
[9] = target: Casein kinase I isoform epsilon (Homo sapiens) (UniProt P49674); test: Inhibition of DNA-tagged human CSNK1E assessed as percent of control at 50000 nM by qPCR analysis relative to control; parameters: scale not given: the % may be the effect or the level left
[10] = target: Serine/threonine-protein kinase pim-1 (Homo sapiens) (UniProt P11309); test: Inhibition of DNA-tagged human PIM1 assessed as percent of control at 50000 nM by qPCR analysis relative to control; parameters: scale not given: the % may be the effect or the level left
[11] = target: Ephrin type-A receptor 1 (Homo sapiens) (UniProt P21709); test: Inhibition of DNA-tagged human EPHA1 assessed as percent of control at 50000 nM by qPCR analysis relative to control; parameters: scale not given: the % may be the effect or the level left
[12] = target: Ephrin type-B receptor 1 (Homo sapiens) (UniProt P54762); test: Inhibition of DNA-tagged human EPHB1 assessed as percent of control at 50000 nM by qPCR analysis relative to control; parameters: scale not given: the % may be the effect or the level left
[13] = target: Atypical kinase COQ8A, mitochondrial (Homo sapiens) (UniProt Q8NI60); test: Inhibition of DNA-tagged human ADCK3 assessed as percent of control at 50000 nM by qPCR analysis relative to control; parameters: scale not given: the % may be the effect or the level left
[14] = target: Tyrosine-protein kinase Mer (Homo sapiens) (UniProt Q12866); test: Inhibition of DNA-tagged human MERTK assessed as percent of control at 50000 nM by qPCR analysis relative to control; parameters: scale not given: the % may be the effect or the level left
[15] = target: Serine/threonine-protein kinase PAK 6 (Homo sapiens) (UniProt Q9NQU5); test: Inhibition of DNA-tagged human PAK6 assessed as percent of control at 50000 nM by qPCR analysis relative to control; parameters: scale not given: the % may be the effect or the level left
[16] = target: Receptor tyrosine-protein kinase erbB-2 (Homo sapiens) (UniProt P04626); test: Inhibition of DNA-tagged human ERBB2 assessed as percent of control at 50000 nM by qPCR analysis relative to control; parameters: scale not given: the % may be the effect or the level left
[17] = target: Ribosomal protein S6 kinase alpha-1 (Homo sapiens) (UniProt Q15418); test: Inhibition of DNA-tagged human N-terminal RSK1 kinase domain 1 assessed as percent of control at 50000 nM by qPCR analysis relative to control; parameters: scale not given: the % may be the effect or the level left
[18] = test system: Mast/stem cell growth factor receptor Kit (Homo sapiens), P10721 [D816H]; test: Inhibition of DNA-tagged human KIT D816H mutant assessed as percent of control at 50000 nM by qPCR analysis relative to control; parameters: scale not given: the % may be the effect or the level left
[19] = target: SRSF protein kinase 3 (Homo sapiens) (UniProt Q9UPE1); test: Inhibition of DNA-tagged human SRPK3 assessed as percent of control at 50000 nM by qPCR analysis relative to control; parameters: scale not given: the % may be the effect or the level left
[20] = target: Tyrosine-protein kinase receptor Tie-1 (Homo sapiens) (UniProt P35590); test: Inhibition of DNA-tagged human TIE1 assessed as percent of control at 50000 nM by qPCR analysis relative to control; parameters: scale not given: the % may be the effect or the level left
[21] = target: Casein kinase II subunit alpha' (Homo sapiens) (UniProt P19784); test: Inhibition of DNA-tagged human CSNK2A2 assessed as percent of control at 50000 nM by qPCR analysis relative to control; parameters: scale not given: the % may be the effect or the level left
[22] = target: Serine/threonine-protein kinase N2 (Homo sapiens) (UniProt Q16513); test: Inhibition of DNA-tagged human PKN2 assessed as percent of control at 50000 nM by qPCR analysis relative to control; parameters: scale not given: the % may be the effect or the level left
KG-1 = test: Cytotoxicity against human KG-1 cells at 0.1-100 uM assessed as decrease in cell viability relative to control; format: functional, cell-based
[23] = target: Serine/threonine-protein kinase N1 (Homo sapiens) (UniProt Q16512); test: Inhibition of DNA-tagged human PKN1 assessed as percent of control at 50000 nM by qPCR analysis relative to control; parameters: scale not given: the % may be the effect or the level left
[24] = target: Serine/threonine-protein kinase mTOR (Homo sapiens) (UniProt P42345); test: Inhibition of DNA-tagged human MTOR assessed as percent of control at 50000 nM by qPCR analysis relative to control; parameters: scale not given: the % may be the effect or the level left
[25] = target: Tyrosine-protein kinase FRK (Homo sapiens) (UniProt P42685); test: Inhibition of DNA-tagged human FRK assessed as percent of control at 50000 nM by qPCR analysis relative to control; parameters: scale not given: the % may be the effect or the level left
[26] = target: Microtubule-associated serine/threonine-protein kinase 1 (Homo sapiens) (UniProt Q9Y2H9); test: Inhibition of DNA-tagged human MAST1 assessed as percent of control at 50000 nM by qPCR analysis relative to control; parameters: scale not given: the % may be the effect or the level left
[27] = target: Membrane-associated tyrosine- and threonine-specific cdc2-inhibitory kinase (Homo sapiens) (UniProt Q99640); test: Inhibition of DNA-tagged human PKMYT1 assessed as percent of control at 50000 nM by qPCR analysis relative to control; parameters: scale not given: the % may be the effect or the level left
[28] = target: Mitogen-activated protein kinase 12 (Homo sapiens) (UniProt P53778); test: Inhibition of DNA-tagged human p38-gamma assessed as percent of control at 50000 nM by qPCR analysis relative to control; parameters: scale not given: the % may be the effect or the level left
[29] = target: Calcium/calmodulin-dependent protein kinase type II subunit delta (Homo sapiens) (UniProt Q13557); test: Inhibition of DNA-tagged human CAMK2D assessed as percent of control at 50000 nM by qPCR analysis relative to control; parameters: scale not given: the % may be the effect or the level left

Sequence of Serine/threonine-protein kinase tousled-like 1 (Homo sapiens) (Q9UKI8 whole entry, canonical isoform): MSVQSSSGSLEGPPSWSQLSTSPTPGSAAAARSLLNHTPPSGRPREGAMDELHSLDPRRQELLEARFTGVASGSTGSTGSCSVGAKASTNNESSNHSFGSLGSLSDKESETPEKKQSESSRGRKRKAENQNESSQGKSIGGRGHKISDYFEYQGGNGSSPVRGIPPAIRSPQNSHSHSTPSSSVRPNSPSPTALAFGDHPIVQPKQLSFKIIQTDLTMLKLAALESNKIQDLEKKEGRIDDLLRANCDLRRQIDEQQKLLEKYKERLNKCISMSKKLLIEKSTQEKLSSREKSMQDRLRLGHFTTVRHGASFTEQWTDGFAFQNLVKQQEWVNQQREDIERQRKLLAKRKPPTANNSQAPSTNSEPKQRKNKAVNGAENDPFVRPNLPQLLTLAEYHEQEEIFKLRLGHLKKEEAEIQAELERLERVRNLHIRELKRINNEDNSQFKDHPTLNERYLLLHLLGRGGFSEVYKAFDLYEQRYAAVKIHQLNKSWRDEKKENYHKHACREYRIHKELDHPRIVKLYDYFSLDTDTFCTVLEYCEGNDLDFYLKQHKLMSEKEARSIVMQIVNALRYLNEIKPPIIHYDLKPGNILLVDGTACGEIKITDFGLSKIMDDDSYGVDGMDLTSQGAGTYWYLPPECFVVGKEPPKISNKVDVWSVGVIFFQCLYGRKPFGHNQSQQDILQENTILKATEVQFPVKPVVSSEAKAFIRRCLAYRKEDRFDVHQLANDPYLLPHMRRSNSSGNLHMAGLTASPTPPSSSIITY
Sequence of Atypical kinase COQ8A, mitochondrial (Homo sapiens) (Q8NI60 163-647 limits assumed): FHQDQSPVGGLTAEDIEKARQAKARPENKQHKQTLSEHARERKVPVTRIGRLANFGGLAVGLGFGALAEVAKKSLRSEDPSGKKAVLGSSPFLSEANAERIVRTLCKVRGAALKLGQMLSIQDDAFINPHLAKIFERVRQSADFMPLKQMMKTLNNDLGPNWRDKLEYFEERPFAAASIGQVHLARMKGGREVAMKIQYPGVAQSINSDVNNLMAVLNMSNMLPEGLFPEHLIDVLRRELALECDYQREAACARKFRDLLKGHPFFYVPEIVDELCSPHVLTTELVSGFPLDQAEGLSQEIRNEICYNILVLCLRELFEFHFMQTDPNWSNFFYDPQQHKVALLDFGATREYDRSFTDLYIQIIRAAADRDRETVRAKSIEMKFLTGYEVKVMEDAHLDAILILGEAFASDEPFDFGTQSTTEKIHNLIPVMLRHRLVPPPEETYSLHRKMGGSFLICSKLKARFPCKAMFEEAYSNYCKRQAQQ
Sequence of Casein kinase I isoform epsilon (Homo sapiens) (P49674 whole entry, looked up, canonical isoform): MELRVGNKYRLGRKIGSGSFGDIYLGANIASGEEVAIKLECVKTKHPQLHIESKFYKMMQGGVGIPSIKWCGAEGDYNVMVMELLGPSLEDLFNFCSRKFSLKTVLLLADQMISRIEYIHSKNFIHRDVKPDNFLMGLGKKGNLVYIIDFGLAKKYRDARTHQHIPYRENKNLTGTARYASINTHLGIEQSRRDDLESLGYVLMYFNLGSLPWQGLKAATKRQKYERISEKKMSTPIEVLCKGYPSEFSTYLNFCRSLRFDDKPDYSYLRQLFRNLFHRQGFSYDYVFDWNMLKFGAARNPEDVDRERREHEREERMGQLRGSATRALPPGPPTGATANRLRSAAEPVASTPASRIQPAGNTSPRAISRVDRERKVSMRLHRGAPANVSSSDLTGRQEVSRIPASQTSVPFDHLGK
Sequence of SRSF protein kinase 3 (Homo sapiens) (Q9UPE1 whole entry): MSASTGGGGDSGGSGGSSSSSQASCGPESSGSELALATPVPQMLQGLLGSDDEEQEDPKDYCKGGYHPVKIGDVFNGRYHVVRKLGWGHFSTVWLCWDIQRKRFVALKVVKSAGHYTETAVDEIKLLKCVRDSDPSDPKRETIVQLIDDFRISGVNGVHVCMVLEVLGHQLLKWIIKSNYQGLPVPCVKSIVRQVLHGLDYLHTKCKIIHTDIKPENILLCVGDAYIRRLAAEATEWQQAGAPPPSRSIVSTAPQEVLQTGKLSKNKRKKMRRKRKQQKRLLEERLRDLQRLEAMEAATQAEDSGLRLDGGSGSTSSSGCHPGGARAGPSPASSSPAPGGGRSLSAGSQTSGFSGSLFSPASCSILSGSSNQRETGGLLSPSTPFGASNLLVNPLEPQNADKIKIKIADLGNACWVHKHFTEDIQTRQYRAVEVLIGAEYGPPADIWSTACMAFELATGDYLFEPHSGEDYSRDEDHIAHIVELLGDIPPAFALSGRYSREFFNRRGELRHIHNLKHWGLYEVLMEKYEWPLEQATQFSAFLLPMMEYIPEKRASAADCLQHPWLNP
Sequence of Receptor tyrosine-protein kinase erbB-2 (Homo sapiens) (P04626 whole entry, the tested form may be a part): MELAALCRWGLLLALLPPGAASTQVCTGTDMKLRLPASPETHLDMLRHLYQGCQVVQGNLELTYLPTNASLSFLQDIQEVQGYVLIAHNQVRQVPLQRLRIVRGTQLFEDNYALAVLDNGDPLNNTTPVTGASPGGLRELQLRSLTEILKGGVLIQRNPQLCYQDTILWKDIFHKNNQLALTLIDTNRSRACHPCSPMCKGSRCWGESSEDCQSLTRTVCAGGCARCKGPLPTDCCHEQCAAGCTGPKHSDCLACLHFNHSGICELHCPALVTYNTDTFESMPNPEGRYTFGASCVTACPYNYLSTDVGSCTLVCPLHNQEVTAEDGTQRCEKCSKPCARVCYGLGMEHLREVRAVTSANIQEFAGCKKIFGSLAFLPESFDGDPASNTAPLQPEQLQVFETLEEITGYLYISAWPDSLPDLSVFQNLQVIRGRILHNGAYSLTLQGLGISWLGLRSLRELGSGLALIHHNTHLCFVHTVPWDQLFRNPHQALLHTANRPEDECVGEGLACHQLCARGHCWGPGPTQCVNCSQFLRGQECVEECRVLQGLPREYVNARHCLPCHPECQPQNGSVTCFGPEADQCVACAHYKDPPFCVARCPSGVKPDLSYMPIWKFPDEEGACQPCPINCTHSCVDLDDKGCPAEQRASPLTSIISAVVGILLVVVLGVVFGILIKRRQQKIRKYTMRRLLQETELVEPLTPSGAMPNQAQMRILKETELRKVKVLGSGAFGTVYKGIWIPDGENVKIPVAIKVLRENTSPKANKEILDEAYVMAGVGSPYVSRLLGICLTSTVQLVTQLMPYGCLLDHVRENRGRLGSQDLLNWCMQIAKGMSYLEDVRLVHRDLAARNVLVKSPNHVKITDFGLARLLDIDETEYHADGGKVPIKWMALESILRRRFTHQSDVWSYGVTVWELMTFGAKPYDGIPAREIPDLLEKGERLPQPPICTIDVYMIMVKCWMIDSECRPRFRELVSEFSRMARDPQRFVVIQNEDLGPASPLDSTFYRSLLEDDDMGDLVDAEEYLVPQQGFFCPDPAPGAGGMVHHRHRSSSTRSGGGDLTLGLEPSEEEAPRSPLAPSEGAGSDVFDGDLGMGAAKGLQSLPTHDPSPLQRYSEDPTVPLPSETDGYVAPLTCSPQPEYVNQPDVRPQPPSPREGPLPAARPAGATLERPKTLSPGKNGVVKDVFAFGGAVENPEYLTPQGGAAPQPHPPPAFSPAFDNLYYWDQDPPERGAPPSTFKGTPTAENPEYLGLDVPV
Sequence of Microtubule-associated serine/threonine-protein kinase 1 (Homo sapiens) (Q9Y2H9 whole entry, looked up): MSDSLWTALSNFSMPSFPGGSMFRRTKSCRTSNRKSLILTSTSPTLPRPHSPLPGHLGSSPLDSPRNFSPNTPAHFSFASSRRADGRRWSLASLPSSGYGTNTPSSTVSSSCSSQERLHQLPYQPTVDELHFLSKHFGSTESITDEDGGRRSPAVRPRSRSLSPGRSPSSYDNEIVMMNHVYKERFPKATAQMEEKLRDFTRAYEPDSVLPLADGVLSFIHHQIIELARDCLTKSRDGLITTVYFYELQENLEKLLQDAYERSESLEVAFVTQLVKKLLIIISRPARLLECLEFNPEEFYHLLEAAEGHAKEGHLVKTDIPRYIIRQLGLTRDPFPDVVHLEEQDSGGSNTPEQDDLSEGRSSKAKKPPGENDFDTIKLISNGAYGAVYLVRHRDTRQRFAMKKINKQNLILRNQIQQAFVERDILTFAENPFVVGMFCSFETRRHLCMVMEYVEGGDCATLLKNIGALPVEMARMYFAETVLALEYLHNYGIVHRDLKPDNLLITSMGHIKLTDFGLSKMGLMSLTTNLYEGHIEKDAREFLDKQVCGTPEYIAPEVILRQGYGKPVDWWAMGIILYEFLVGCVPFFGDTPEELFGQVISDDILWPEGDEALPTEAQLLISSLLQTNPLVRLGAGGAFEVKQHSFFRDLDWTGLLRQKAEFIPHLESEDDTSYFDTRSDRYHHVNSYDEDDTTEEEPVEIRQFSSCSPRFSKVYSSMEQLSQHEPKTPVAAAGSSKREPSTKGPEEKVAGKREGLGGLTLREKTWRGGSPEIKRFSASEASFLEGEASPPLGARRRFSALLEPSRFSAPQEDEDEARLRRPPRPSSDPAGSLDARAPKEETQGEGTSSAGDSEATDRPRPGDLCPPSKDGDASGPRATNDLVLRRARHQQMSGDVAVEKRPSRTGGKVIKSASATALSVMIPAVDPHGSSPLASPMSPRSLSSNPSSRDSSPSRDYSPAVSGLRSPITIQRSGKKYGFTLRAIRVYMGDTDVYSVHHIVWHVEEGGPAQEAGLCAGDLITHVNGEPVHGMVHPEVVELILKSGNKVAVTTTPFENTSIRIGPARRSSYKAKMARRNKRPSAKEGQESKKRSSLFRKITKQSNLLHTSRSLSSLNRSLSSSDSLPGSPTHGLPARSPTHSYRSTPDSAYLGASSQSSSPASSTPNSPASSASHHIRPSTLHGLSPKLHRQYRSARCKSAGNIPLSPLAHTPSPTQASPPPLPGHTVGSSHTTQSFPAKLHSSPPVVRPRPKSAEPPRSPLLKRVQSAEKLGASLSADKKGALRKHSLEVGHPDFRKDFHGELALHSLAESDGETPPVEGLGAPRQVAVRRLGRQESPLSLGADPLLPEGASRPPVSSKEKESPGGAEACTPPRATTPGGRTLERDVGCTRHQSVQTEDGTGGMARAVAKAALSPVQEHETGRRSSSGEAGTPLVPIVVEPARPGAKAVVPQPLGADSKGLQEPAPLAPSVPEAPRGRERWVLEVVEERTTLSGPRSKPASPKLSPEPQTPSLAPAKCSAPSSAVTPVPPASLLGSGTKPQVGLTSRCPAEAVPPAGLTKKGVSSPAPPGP

## CN1C(=O)/C(=C2/C(=O)Nc3ccccc32)c2ccccc21
[1]
  Activity: 92%
[2]
  Activity: 100%
[3]
  Activity: 88%
[4]
  Activity: 81%
[5]
  Activity: 93%
[6]
  Activity: 100%
[7]
  Activity: 86%
[8]
  Activity: 100%
[9]
  Activity: 91%
[10]
  Activity: 83%
[11]
  Activity: 100%
[12]
  Activity: 97%
[13]
  Activity: 74%
[14]
  Activity: 100%
[15]
  Activity: 100%
[16]
  Activity: 100%
[17]
  Activity: 96%
[18]
  Activity: 75%
[19]
  Activity: 100%
[20]
  Activity: 88%
[21]
  Activity: 82%
[22]
  Activity: 99%
KG-1
  Activity: Active
[23]
  Activity: 100%
[24]
  Activity: 100%
[25]
  Activity: 96%
[26]
  Activity: 85%
[27]
  Activity: 100%
[28]
  Activity: 92%
[29]
  Activity: 80%
